biological target: HPK1 (Homo sapiens (Human), UniProt Q92918); assay: HPK1 Inhibition Assay (ADP-Glo kinase assay); assay type: biochemical; details: ATP 10 μM
How it was run: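 ADP-Glo luminescence read-out after 1 h room-temperature kinase reaction with 10 μM ATP and 0.1 μg/ml MBP. Recombinant human HPK1 at 7.5 ng/μl; buffer 40 mM Tris pH 7.5, 20 mM MgCl2. Compounds serially diluted 5-fold over 10 points from 10 mM DMSO stock.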

HPK1, sequence (Q92918 1-346 limits assumed): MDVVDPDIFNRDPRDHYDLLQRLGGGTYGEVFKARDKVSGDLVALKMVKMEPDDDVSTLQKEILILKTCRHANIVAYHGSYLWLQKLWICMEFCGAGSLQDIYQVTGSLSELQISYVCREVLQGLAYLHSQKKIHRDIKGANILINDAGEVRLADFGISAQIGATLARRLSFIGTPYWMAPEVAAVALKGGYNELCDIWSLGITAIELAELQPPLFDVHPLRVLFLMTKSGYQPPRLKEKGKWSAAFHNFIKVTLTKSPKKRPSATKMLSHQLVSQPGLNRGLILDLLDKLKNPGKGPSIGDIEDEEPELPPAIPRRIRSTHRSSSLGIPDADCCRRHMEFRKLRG

IC50 [nM]	Structure (SMILES)
< 100	CC1(C)CN(c2c(NC(=O)c3ccc(=O)n(-c4c(F)cccc4F)n3)ccc3nn([C@H]4CCOC4)cc23)C[C@@H]1N [Example 324, N-(4-((R)-4-amino-3,3-dimethylpyrrolidin-1-yl)-2-((S)-tetrahydrofuran-3-yl)-2H-indazol-5-yl)-1-(2,6-difluorophenyl)-6-oxo-1,6-dihydropyridazine-3-carboxamide]
< 100	Cc1nc2c(N3CC4CNCC4C3)c(NC(=O)c3ccc(=O)n(-c4c(F)cccc4F)n3)ccc2n1C (centres unmarked) [Example 79, 1-(2,6-difluorophenyl)-N-(4-(hexahydropyrrolo[3,4-c]pyrrol-2(1H)-yl)-1,2-dimethyl-1H-benzo[d]imidazol-5-yl)-6-oxo-1,6-dihydropyridazine-3-carboxamide]
< 100	Cc1nc2c(N3CC[C@H](N)C3)c(NC(=O)c3ccc(=O)n(-c4c(F)cccc4F)n3)ccc2n1C1CCOCC1 [Example 88, (S)-N-(4-(3-aminopyrrolidin-1-yl)-2-methyl-1-(tetrahydro-2H-pyran-4-yl)-1H-benzo[d]imidazol-5-yl)-1-(2,6-difluorophenyl)-6-oxo-1,6-dihydropyridazine-3-carboxamide]
< 100	Cc1nn(C(C)C)c2c(F)cc(NC(=O)c3ccc(=O)n(-c4c(F)cccc4F)n3)c(N3C[C@@H](C)[C@@H](N)C3)c12 [Example 218, N-(4-((3R,4R)-3-amino-4-methylpyrrolidin-1-yl)-7-fluoro-1-isopropyl-3-methyl-1H-indazol-5-yl)-1-(2,6-difluorophenyl)-6-oxo-1,6-dihydropyridazine-3-carboxamide]
< 100	CC(C)(C)n1cc2c(N3C[C@H](N)C4(CC4)C3)c(NC(=O)c3ccc(=O)n(-c4c(F)cccc4F)n3)ccc2n1 [Example 235, (R)-N-(4-(7-amino-5-azaspiro[2.4]heptan-5-yl)-2-(tert-butyl)-2H-indazol-5-yl)-1-(2,6-difluorophenyl)-6-oxo-1,6-dihydropyridazine-3-carboxamide]
< 100	CC(C)c1nc2c(N3CC[C@H](N)C3)c(NC(=O)c3ccc(=O)n(-c4c(F)cccc4F)n3)ccc2n1C [Example 132, (S)-N-(4-(3-aminopyrrolidin-1-yl)-2-isopropyl-1-methyl-1H-benzo[d]imidazol-5-yl)-1-(2,6-difluorophenyl)-6-oxo-1,6-dihydropyridazine-3-carboxamide]
< 100	CC(C)n1cc2c(N3CCC(N)CC3)c(NC(=O)c3ccc(=O)n(-c4c(F)cccc4F)n3)ccc2n1 [Example 230, N-(4-(4-aminopiperidin-1-yl)-2-isopropyl-2H-indazol-5-yl)-1-(2,6-difluorophenyl)-6-oxo-1,6-dihydropyridazine-3-carboxamide]
< 100	C[C@H]1CN(c2c(NC(=O)c3ccc(=O)n(-c4c(F)cccc4F)n3)ccc3c2cnn3[C@H]2CCOC2)C[C@@H]1N [Example 260, N-(4-((3R,4S)-3-amino-4-methylpyrrolidin-1-yl)-1-((S)-tetrahydrofuran-3-yl)-1H-indazol-5-yl)-1-(2,6-difluorophenyl)-6-oxo-1,6-dihydropyridazine-3-carboxamide]
< 100	CC(C)n1ncc2c(N3CC[C@H](N)C3)c(NC(=O)c3ccc(=O)n(-c4c(F)cccc4F)n3)ccc21 [Example 207, (S)-N-(4-(3-aminopyrrolidin-1-yl)-1-isopropyl-1H-indazol-5-yl)-1-(2,6-difluorophenyl)-6-oxo-1,6-dihydropyridazine-3-carboxamide]
< 100	CC(C)c1nc2c(N3CC4C[C@]4(N)C3)c(NC(=O)c3ccc(=O)n(-c4c(F)cccc4F)n3)ccc2n1C (stereo partly drawn) [Example 112, N-(4-((1R)-1-amino-3-azabicyclo[3.1.0]hexan-3-yl)-2-isopropyl-1-methyl-1H-benzo[d]imidazol-5-yl)-1-(2,6-difluorophenyl)-6-oxo-1,6-dihydropyridazine-3-carboxamide]
< 100	C[C@H]1CN(c2c(NC(=O)c3ccc(=O)n(-c4c(F)cccc4F)n3)ccc3nn([C@@H]4CCOC4)cc23)C[C@@H]1N [Example 326, N-(4-((3R,4S)-3-amino-4-methylpyrrolidin-1-yl)-2-((R)-tetrahydrofuran-3-yl)-2H-indazol-5-yl)-1-(2,6-difluorophenyl)-6-oxo-1,6-dihydropyridazine-3-carboxamide]
< 100	CC(C)c1nc2c(N3C[C@@H](C)[C@@H](N)C3)c(NC(=O)c3ccc(=O)n(-c4c(F)cccc4F)n3)ccc2n1C [Example 110, N-(4-((3R,4R)-3-amino-4-methylpyrrolidin-1-yl)-2-isopropyl-1-methyl-1H-benzo[d]imidazol-5-yl)-1-(2,6-difluorophenyl)-6-oxo-1,6-dihydropyridazine-3-carboxamide]
< 100	CC1(C)CN(c2c(NC(=O)c3ccc(=O)n(-c4c(F)cccc4F)n3)ccc3c2cnn3[C@@H]2CCOC2)C[C@@H]1N [Example 267, N-(4-((R)-4-amino-3,3-dimethylpyrrolidin-1-yl)-1-((R)-tetrahydrofuran-3-yl)-1H-indazol-5-yl)-1-(2,6-difluorophenyl)-6-oxo-1,6-dihydropyridazine-3-carboxamide]
< 100	COc1cccc(F)c1-c1cccc(C(=O)Nc2cc(F)c3nn(C)cc3c2N2C[C@@H](N)C[C@H]2CO)[n+]1[O-] [Example 63, 2-((4-((2S,4S)-4-amino-2-(hydroxymethyl)pyrrolidin-1-yl)-7-fluoro-2-methyl-2H-indazol-5-yl)carbamoyl)-6-(2-fluoro-6-methoxyphenyl)pyridine 1-oxide]
< 100	COc1cccc(F)c1-n1nc(C(=O)Nc2ccc3c(nc(C)n3C)c2N2CC[C@H](N)C2)ccc1=O [Example 66, (S)—N-(4-(3-aminopyrrolidin-1-yl)-1,2-dimethyl-1H-benzo[d]imidazol-5-yl)-1-(2-fluoro-6-methoxyphenyl)-6-oxo-1,6-dihydropyridazine-3-carboxamide]
< 100	N#Cc1ccncc1-c1ccc(NC(=O)c2ccc(=O)n(-c3c(F)cccc3F)n2)c(N2CC[C@H](N)C2)c1 [Example 344, (S)-N-(2-(3-aminopyrrolidin-1-yl)-4-(4-cyanopyridin-3-yl)phenyl)-1-(2,6-difluorophenyl)-6-oxo-1,6-dihydropyridazine-3-carboxamide]
< 100	[2H]C([2H])([2H])C(n1ncc2c(N3C[C@H](N)C4(CC4)C3)c(NC(=O)c3ccc(=O)n(-c4c(F)cccc4F)n3)ccc21)C([2H])([2H])[2H] [Example 277, (R)-N-(4-(7-amino-5-azaspiro[2.4]heptan-5-yl)-1-(propan-2-yl-1,1,1,3,3,3-d6)-1H-indazol-5-yl)-1-(2,6-difluorophenyl)-6-oxo-1,6-dihydropyridazine-3-carboxamide]
< 100	C[C@@H]1CN(c2c(NC(=O)c3ccc(=O)n(-c4c(F)cccc4F)n3)ccc3c2cnn3[C@H]2CCOC2)C[C@@H]1N [Example 255, N-(4-((3R,4R)-3-amino-4-methylpyrrolidin-1-yl)-1-((S)-tetrahydrofuran-3-yl)-1H-indazol-5-yl)-1-(2,6-difluorophenyl)-6-oxo-1,6-dihydropyridazine-3-carboxamide]
< 100	COc1cccc(F)c1-c1cccc(C(=O)Nc2cc(F)ccc2N2C[C@H]3C[C@@H]2CN3)[n+]1[O-] [Example 55, 2-((2-((1R,4R)-2,5-diazabicyclo[2.2.1]heptan-2-yl)-5-fluorophenyl)carbamoyl)-6-(2-fluoro-6-methoxyphenyl)pyridine 1-oxide]
100 to 1000	COc1cccc(F)c1-n1cccc(C(=O)Nc2cc(F)c3nn(C)cc3c2N2C[C@H]3C[C@@H]2CN3)c1=O [Example 52, N-(4-((1R,4R)-2,5-diazabicyclo[2.2.1]heptan-2-yl)-7-fluoro-2-methyl-2H-indazol-5-yl)-1-(2-fluoro-6-methoxyphenyl)-2-oxo-1,2-dihydropyridine-3-carboxamide]
< 100	CC(C)n1ncc2c(N3C[C@H](N)C4(CC4)C3)c(NC(=O)c3ccc(=O)n(-c4c(F)cccc4F)n3)ccc21 [Example 182, (R)-N-(4-(7-amino-5-azaspiro[2.4]heptan-5-yl)-1-isopropyl-1H-indazol-5-yl)-1-(2,6-difluorophenyl)-6-oxo-1,6-dihydropyridazine-3-carboxamide]
< 100	N#Cc1ccncc1-c1ccc(NC(=O)c2ccc(=O)n(-c3c(F)cccc3F)n2)c(N2CC[C@](N)(C(F)(F)F)C2)c1 (single isomer, unassigned) [Example 358]
< 100	CC[C@@H]1CN(c2c(NC(=O)c3ccc(=O)n(-c4c(F)cccc4F)n3)cc(F)c3c2cnn3C(C)C)C[C@@H]1N [Example 216, N-(4-((3R,4R)-3-amino-4-ethylpyrrolidin-1-yl)-7-fluoro-1-isopropyl-1H-indazol-5-yl)-1-(2,6-difluorophenyl)-6-oxo-1,6-dihydropyridazine-3-carboxamide]
< 100	C[C@H]1CN(c2c(NC(=O)c3ccc(=O)n(-c4c(F)cccc4F)n3)ccc3nn(C45CCC(CC4)C5)cc23)C[C@@H]1N [Example 312, N-(4-((3R,4S)-3-amino-4-methylpyrrolidin-1-yl)-2-(bicyclo[2.2.1]heptan-1-yl)-2H-indazol-5-yl)-1-(2,6-difluorophenyl)-6-oxo-1,6-dihydropyridazine-3-carboxamide]
< 100	Cc1nc2c(N3CC[C@@](C)(N)C3)c(NC(=O)c3ccc(=O)n(-c4c(F)cccc4F)n3)ccc2n1C [Example 90, (R)-N-(4-(3-amino-3-methylpyrrolidin-1-yl)-1,2-dimethyl-1H-benzo[d]imidazol-5-yl)-1-(2,6-difluorophenyl)-6-oxo-1,6-dihydropyridazine-3-carboxamide]
< 100	CC(C)(C)n1ncc2c(N3C[C@H](N)C4(CC4)C3)c(NC(=O)c3ccc(=O)n(-c4c(F)cccc4F)n3)ccc21 [Example 302, N-[4-[(7R)-7-amino-5-azaspiro[2.4]heptan-5-yl]-1-tert-butyl-indazol-5-yl]-1-(2,6-difluorophenyl)-6-oxo-pyridazine-3-carboxamide]
